Laboratory results reported in paper PMC6664820, “Novel natural and synthetic inhibitors of solute carriers SGLT1 and SGLT2” (Pharmacology Research & Perspectives, 2019).
Where a name gives a salt, the structure may show the parent alone. Read-outs that look alike come from different tables or passages of the source.

Legend:
[1] = biological target: T1, SGLT1 (Homo sapiens, UniProt P13866); assay: SGLT1 inhibition assay for validation of screening hits and similar compounds (1‐NBD‐glucose uptake, CHO‐hSGLT1 cells); assay type: cell-based; set-up: activity: dose or concentration left out as unconfirmed; conditions: for inhibition at 50 µM: read-out: SGLT1 inhibition; for activity: compound, normalized 1-NBD-glucose uptake, CHO-hSGLT1 cells; for activity / remaining activity at 5 µM / remaining activity at 50 µM: mean; for remaining activity at 5 µM / remaining activity at 50 µM: 0.5 h, concentration not given, read-out: NORMALIZED SGLT1 ACTIVITY (%)
T1 sequence (P13866 1-664): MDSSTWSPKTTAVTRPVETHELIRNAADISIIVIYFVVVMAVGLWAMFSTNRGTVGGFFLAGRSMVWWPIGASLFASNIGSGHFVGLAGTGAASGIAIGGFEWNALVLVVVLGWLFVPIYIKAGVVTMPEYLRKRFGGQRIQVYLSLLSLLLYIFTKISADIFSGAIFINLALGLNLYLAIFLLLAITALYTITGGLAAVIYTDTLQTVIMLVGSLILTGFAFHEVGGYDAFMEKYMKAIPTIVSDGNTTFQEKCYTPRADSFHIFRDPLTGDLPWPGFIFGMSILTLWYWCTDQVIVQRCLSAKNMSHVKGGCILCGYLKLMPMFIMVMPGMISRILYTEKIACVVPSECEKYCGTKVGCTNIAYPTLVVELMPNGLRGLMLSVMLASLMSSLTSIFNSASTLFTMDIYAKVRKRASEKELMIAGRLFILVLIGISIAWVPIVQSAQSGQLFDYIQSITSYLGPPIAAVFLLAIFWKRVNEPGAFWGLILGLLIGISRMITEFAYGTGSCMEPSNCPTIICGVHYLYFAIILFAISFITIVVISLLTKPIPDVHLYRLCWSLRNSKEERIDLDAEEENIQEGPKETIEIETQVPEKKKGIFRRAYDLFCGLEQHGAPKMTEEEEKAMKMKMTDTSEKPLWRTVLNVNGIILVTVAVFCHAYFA

[2] = biological target: T2, hSGLT2 (Homo sapiens, UniProt P31639); assay: SGLT2 inhibition assay for validation of screening hits and similar compounds (1‐NBD‐glucose uptake, CHO‐hSGLT2 cells); assay type: cell-based; set-up: activity: dose or concentration left out as unconfirmed; conditions: for activity: compound, normalized 1-NBD-glucose uptake, CHO-hSGLT2 cells; for activity / remaining activity at 5 µM / remaining activity at 50 µM: mean; for SGLT2/SGLT1 ACTIVITY RATIO 5 uM Mean: ratio of normalized SGLT2 to SGLT1 activity at 5 uM; for remaining activity at 5 µM / remaining activity at 50 µM: 0.5 h, concentration not given, read-out: NORMALIZED SGLT2 ACTIVITY (%)
T2 sequence (P31639 1-672): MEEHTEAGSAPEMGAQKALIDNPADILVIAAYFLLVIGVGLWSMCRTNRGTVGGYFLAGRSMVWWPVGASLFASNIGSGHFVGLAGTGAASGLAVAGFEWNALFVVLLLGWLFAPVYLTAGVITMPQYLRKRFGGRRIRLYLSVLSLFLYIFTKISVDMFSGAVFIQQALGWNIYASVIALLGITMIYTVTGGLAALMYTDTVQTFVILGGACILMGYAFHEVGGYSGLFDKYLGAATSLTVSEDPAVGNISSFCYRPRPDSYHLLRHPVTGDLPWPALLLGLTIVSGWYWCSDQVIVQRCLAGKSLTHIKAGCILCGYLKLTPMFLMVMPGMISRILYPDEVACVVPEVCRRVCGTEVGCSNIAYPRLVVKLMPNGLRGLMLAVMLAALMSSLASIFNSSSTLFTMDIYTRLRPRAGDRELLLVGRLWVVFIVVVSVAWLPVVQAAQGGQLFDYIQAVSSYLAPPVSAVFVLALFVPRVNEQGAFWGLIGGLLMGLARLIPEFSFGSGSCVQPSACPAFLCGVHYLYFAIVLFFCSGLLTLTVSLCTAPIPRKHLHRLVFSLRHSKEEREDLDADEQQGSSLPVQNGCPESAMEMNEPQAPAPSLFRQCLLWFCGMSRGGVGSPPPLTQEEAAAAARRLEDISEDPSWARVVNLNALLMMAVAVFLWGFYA

[3] = test system: CHO‐hSGLT1/2 cells; assay: Cytotoxicity assay (ToxiLight, adenylate kinase leakage into CHO‐SGLT1/2 inhibition assay media); set-up: CYTOTOXICITY / CY[…], mean / CYTOTOXICITY (% of vehicle control) Mean / CYTOTOXICITY, mean / CY[…] (% of vehicle control) Mean: dose or concentration left out as unconfirmed; conditions: for CY[…] 50 mM: at 50 mM (so in the source);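 for all read-outs here: bioluminescent read-out of adenylate kinase released from lysed cells into the medium, given relative to DMSO vehicle control defined as 0%, higher meaning more cytolysis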
Protocol: The cytotoxicity of representative SGLT1/2 inhibitors and compounds from the different chemical clusters was tested. Cytotoxicity was determined using the ToxiLight bioassay kit according to the supplier's instructions. This nondestructive assay measures leakage of the enzyme adenylate kinase (AK) from damaged cells into the CHO‐SGLT1/2 inhibition assay media, ie the degree of cytolysis. […] Next, bioluminescence was measured using a FlexStation 3 Multi‐Mode Microplate Reader (Molecular Devices) by 1 second integrated reading. Cytotoxicity was expressed as the percentage of bioluminescence of the DMSO vehicle control which was set at 0%. If applicable, statistical outliers were determined using Grubbs’ test (alpha = 0.05) and excluded for calculation of the mean ± SD.

[4] = 1‐NBD‐glucose uptake, CHO‐hSGLT1, mean of n biological replicates, or individual measurements where n=2, read-out: SGLT1‐IC50 Mean
[5] = mean inhibition with 50 μmol/L inhibitor
[6] = 1‐NBD‐glucose uptake, CHO‐hSGLT2, mean of n biological replicates, or individual measurements where n=2, read-out: SGLT2‐IC50 Mean
[7] = SGLT1 and/or SGLT2, discussion statements

Row | SMILES | remaining activity at 5 µM [1] [%] | remaining activity at 50 µM [1] [%] | remaining activity at 5 µM [2] [%] | remaining activity at 50 µM [2] [%] | further results
1 | Oc1ccc(C=Cc2cc(O)cc3c2C(c2cc(O)cc(O)c2)C(c2ccc(O)cc2)O3)cc1 (stereo not drawn) [(+)‐ε‐viniferin] |  |  |  |  | IC50 [1, 4]: 58 µM; SGLT2/SGLT1‐50μmol/L (ratio of SGLT2 to SGLT1 activities with 50 μmol/L inhibitor) ([1]; listed as (+)‐ε‐Viniferin): 1.4; inhibition at 50 µM [1, 5]: 44%; IC50 [2, 6]: 110 µM; SGLT2 inhibition [2, 5]: little inhibition of SGLT2
2 | CN1CCc2cc3c(cc2C2OC(O)c4c(ccc5c4OCO5)C21)OCO3 (stereo not shown) [(Iso)rheagenine] |  |  |  |  | activity [1]: 114%; activity [2]: 97%; SGLT2/SGLT1 ACTIVITY RATIO 5 uM Mean [2]: 0.857
3 | Oc1ccc(C=Cc2cc(O)cc3c2C(c2cc(O)cc(O)c2)C(c2ccc(O)cc2)O3)cc1 (stereo not drawn) [(−)‐ε‐viniferin] |  |  |  |  | SGLT2/SGLT1‐50μmol/L (ratio of SGLT2 to SGLT1 activities with 50 μmol/L inhibitor) [1]: 0.6; SGLT1 inhibition [1, 5]: did not inhibit SGLT1; inhibition at 50 µM [2, 5]: 35%
4 | CN1CCCCC1c1ccc(-c2cccnc2)nc1 (stereo not shown) [Anabasamine] | 114 | 100 | 103 | 91 | 
5 | Clc1ccc(C2(Cn3cncn3)OCCO2)c(Cl)c1 [Azaconazole] | 111 | 107 | 109 | 104 | 
6 | Oc1c(Br)cc(Br)c2cccnc12 [Broxyquinoline] | 110 | 69 | 100 | 90 | 
7 | CCN(CC)CCOC(=O)C1(c2ccccc2)CCCC1 [Caramiphen, reference compound] |  |  |  |  | SGLT2/SGLT1‐50μmol/L (ratio of SGLT2 to SGLT1 activities with 50 μmol/L inhibitor) [1]: 0.6; inhibition at 50 µM [1, 5]: 33%; inhibition at 50 µM [2, 5]: 58%
8 | CN(C)CCOC(c1ccc(Cl)cc1)c1ccccn1 (stereo not shown) [Carbinoxamine] |  |  |  |  | activity [1]: 105%; activity [2]: 100%; SGLT2/SGLT1 ACTIVITY RATIO 5 uM Mean [2]: 1.0
9 | C=C[C@H]1C[N@@]2CC[C@H]1C[C@@H]2[C@@H](O)c1ccnc2ccccc12 [Cinchonine] | 121 | 112 | 111 | 105 | 
10 | CN1CCC[C@@H]1CCO[C@](C)(c1ccccc1)c1ccc(Cl)cc1 [Clemastine fumarate] |  |  |  |  | CY[…] 50 mM ([3]; mean): 2.45
11 | Oc1c(I)cc(Cl)c2cccnc12 [Clioquinol, 5-Chloro-7-iodo-8-quinolinol] | 107 | 84 | 107 | 92 | 
12 | Clc1ccc(C(OCCN2CCCCC2)c2ccccc2)cc1 (stereo not shown) [Cloperastine, cloperastine, reference compound] |  |  |  |  | IC50 [1, 4]: 9 µM; SGLT1/2 inhibition stated in words [1, 7]: novel SGLT1/2 inhibitors; inhibition at 50 µM [1, 5]: 72%; IC50 [2, 6]: 9 µM
13 | CC[C@H]1CN2CC[C@H]1C[C@H]2[C@H](O)c1ccnc2ccc(OC)cc12 [Dihydroquinine] | 99 | 63 | 94 | 58 | 
14 | COc1ccc2ccc(=O)oc2c1C(OC(C)=O)C(=O)C(C)C (stereo not shown) [Hainanmurpanin] |  |  |  |  | activity [1]: 110%; activity [2]: 108%; SGLT2/SGLT1 ACTIVITY RATIO 5 uM Mean [2]: 1.0
15 | O=C(/C=C/c1ccc(O[C@@H]2O[C@H](CO)[C@@H](O)[C@H](O)[C@H]2O)cc1)c1ccc(O)cc1O [Isoliquiritin] |  |  |  |  | SGLT2/SGLT1‐50μmol/L (ratio of SGLT2 to SGLT1 activities with 50 μmol/L inhibitor) [1]: 1.4; activity [1]: 96%; inhibition at 50 µM [1, 5]: 46%; activity [2]: 98%; inhibition at 50 µM [2, 5]: 24%; SGLT2/SGLT1 ACTIVITY RATIO 5 uM Mean [2]: 1.0
16 | CCN(CC)CC(=O)Nc1c(C)cccc1C [Lidocaine] | 90 | 82 | 90 | 77 | 

Row | SMILES | remaining activity at 5 µM [1] [%] | remaining activity at 50 µM [1] [%] | remaining activity at 5 µM [2] [%] | remaining activity at 50 µM [2] [%] | further results
17 | CN(C)CCN(Cc1cccs1)c1ccccn1 [Methapyrilene HCl] |  |  |  |  | CY[…] 50 mM ([3]; mean): -16
18 | CN1CCN2c3ncccc3Cc3ccccc3C2C1 (stereo not shown) [Mirtazapine] | 114 | 105 | 113 | 108 | 
19 | Cc1cccc(C)c1NC(=O)CN1CCCC1=O [Nefiracetam] | 95 | 95 | 87 | 84 | 
20 | Cc1ccccc1C(OCCN(C)C)c1ccccc1 (stereo not shown) [Orphenadrine HCl] |  |  |  |  | CYTOTOXICITY (% of vehicle control) Mean ([3]; mean): 9 % of vehicle control
21 | COc1cc2oc(=O)ccc2cc1C[C@@H](O)C(C)(C)O [Peucedanol] |  |  |  |  | activity [1]: 100%; activity [2]: 95%
22 | Cc1cccc(C)c1NC(=O)CC12CCCN1CCC2 [Pilsicainide] | 94 | 89 | 90 | 78 | 
23 | OC[C@H]1O[C@@H](Oc2cc(O)cc(/C=C/c3ccc(O)cc3)c2)[C@H](O)[C@@H](O)[C@@H]1O [Polydatin] |  |  |  |  | SGLT2/SGLT1‐50μmol/L (ratio of SGLT2 to SGLT1 activities with 50 μmol/L inhibitor) [1]: 1.5; activity [1]: 94%; inhibition at 50 µM [1, 5]: 46%; activity [2]: 97%; inhibition at 50 µM [2, 5]: 18%; SGLT2/SGLT1 ACTIVITY RATIO 5 uM Mean [2]: 1.0
24 | CCCNC(C)C(=O)Nc1ccccc1C (stereo not shown) [Prilocaine] | 95 | 86 | 89 | 76 | 
25 | OC(CCN1CCCC1)(c1ccccc1)C1CCCCC1 (stereo not shown) [Procyclidine HCl] |  |  |  |  | activity [1]: 74%; activity [2]: 76%
26 | COc1cc(O)c2c(=O)c(-c3ccc(OC4OC(CO)C(O)C(O)C4O)cc3)coc2c1 (stereo not shown) [Prunetin‐4‐p‐galactoside] |  |  |  |  | SGLT2/SGLT1‐50μmol/L (ratio of SGLT2 to SGLT1 activities with 50 μmol/L inhibitor) [1]: 2.3; inhibition at 50 µM [1, 5]: 62%; inhibition at 50 µM [2, 5]: 12%
27 | CN[C@H]1CC[C@@H](c2ccc(Cl)c(Cl)c2)c2ccccc21 [Sertraline HCl] |  |  |  |  | CY[…], mean ([3]; ToxiLight, adenylate kinase leakage): -21
28 | CC(C)(C)C(=O)C(Oc1ccc(Cl)cc1)n1cncn1 (stereo not shown) [Triadimefon] | 101 | 58 | 91 | 76 | 
29 | OC(CCN1CCCCC1)(c1ccccc1)C1CCCCC1 (stereo not shown) [Trihexyphenidyl, trihexyphenidyl, reference compound] |  |  |  |  | IC50 [1]: 12 µM; SGLT1/2 inhibition stated in words [1]: novel SGLT1/2 inhibitors; inhibition at 50 µM [1]: 69%; IC50 [2]: 20 µM
30 | Oc1ccc([C@H]2c3c(O)cc4c5c3[C@@H]([C@H](c3ccc(O)cc3)c3c(O)cc(O)cc3[C@H]5[C@@H](c3ccc(O)cc3)O4)[C@@H]2c2cc(O)cc(O)c2)cc1 [Viniferol D] | 100 | 102 | 97 | 65 | SGLT2/SGLT1‐50μmol/L (ratio of SGLT2 to SGLT1 activities with 50 μmol/L inhibitor) [1]: 0.6; SGLT1 inhibition [1, 5]: no effect on SGLT1; inhibition at 50 µM [2, 5]: 35%
31 | Oc1ccc([C@H]2Oc3cc(O)cc4c3[C@@H]2c2cc(O)cc3c2[C@@H](c2cc(O)cc5c2[C@@H]4[C@H](c2ccc(O)cc2)O5)[C@H](c2ccc(O)cc2)O3)cc1 [a-Viniferin] | 96 | 102 | 104 | 109 | 
32 | CCCCN1CCCC[C@H]1C(=O)Nc1c(C)cccc1C [levobupivacaine, reference compound] | 74 | 41 | 73 | 46 | SGLT1/2 inhibition stated in words [1, 7]: novel SGLT1/2 inhibitors
